Where “and” joins values, the source holds several entries; their conditions need not be identical. Equal values may be shown once.
Assays:
[1] = target: T1, Beta-galactoside alpha-2,6-sialyltransferase 1 (Homo sapiens, UniProt P15907); experiment: Competitive inhibition of human recombinant ST6Gal-1 using CMP-Neu5Ac and p-nitrophenyl LacNAc as donar and acceptor by Lineweaver-Burk double reciprocal plot analysis
T1 sequence (P15907 whole entry): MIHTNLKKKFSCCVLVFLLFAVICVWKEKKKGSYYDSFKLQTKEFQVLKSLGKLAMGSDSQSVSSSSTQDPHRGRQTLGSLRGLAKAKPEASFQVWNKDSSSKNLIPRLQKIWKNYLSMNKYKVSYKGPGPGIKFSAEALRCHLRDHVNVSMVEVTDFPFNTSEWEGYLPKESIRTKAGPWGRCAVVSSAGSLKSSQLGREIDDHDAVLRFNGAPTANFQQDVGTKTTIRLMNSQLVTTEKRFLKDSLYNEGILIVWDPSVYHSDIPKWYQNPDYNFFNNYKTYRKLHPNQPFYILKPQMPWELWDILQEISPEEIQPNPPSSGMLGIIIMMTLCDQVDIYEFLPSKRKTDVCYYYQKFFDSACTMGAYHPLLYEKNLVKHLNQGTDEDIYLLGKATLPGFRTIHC

[2] = target: T2, Beta-galactoside alpha-2,6-sialyltransferase 1 (Homo sapiens) (UniProt P15907); experiment: Inhibition of human recombinant ST6Gal-1 assessed as trisaccharide formation using CMP-Neu5Ac and p-nitrophenyl LacNAc as donar and acceptor at 10 uM by RP-HPLC analysis
T2 sequence (whole entry): T1 sequence (P15907 whole entry)

[3] = target: T2, Beta-galactoside alpha-2,6-sialyltransferase 1 (Homo sapiens); experiment: Ratio of CMP-Neu5Ac Km to compound Ki for human recombinant ST6Gal-1
[4] = Inhibition of rat alpha-2,6-sialyltransferase

Structure (SMILES) | Ki [1] [nM] | inhibition [2] | Ratio [3] | Ki [4] [nM]
CC(=O)N[C@H]1C[C@@H](C(OP(=O)(O)OC[C@H]2O[C@@H](n3ccc(N)nc3=O)[C@H](O)[C@@H]2O)P(=O)(O)O)C[C@H]1OCc1ccccc1 (stereo in doubt; 5Rs) [listing 1 of 2 here] | 1510 |  |  | 
Nc1ccn([C@@H]2O[C@H](COP(=O)(O)OC([C@H]3C[C@@H](O)[C@@H](O)C3)P(=O)(O)O)[C@@H](O)[C@H]2O)c(=O)n1 (stereo in doubt; 3s) |  | 31% |  | 
Nc1ccn([C@@H]2O[C@H](COP(=O)(O)OC(c3cccc(Oc4ccccc4)c3)P(=O)(O)O)[C@@H](O)[C@H]2O)c(=O)n1 (stereo partly drawn) | 19 | 98.1% | 2190 | 
CC(=O)N[C@H]1C[C@H](C(OP(=O)(O)OC[C@H]2O[C@@H](n3ccc(N)nc3=O)[C@H](O)[C@@H]2O)P(=O)(O)O)C[C@H]1O (stereo in doubt; 4Ss) [listing 1 of 2 here] | 4310 |  |  | 
CC(=O)N[C@H]1C[C@H](C(OP(=O)(O)OC[C@H]2O[C@@H](n3ccc(N)nc3=O)[C@H](O)[C@@H]2O)P(=O)(O)O)C[C@H]1OCc1ccccc1 (stereo in doubt; 5Sl) [listing 1 of 2 here] |  | 75.3% | 95.5 | 
CC(=O)N[C@H]1C[C@@H](C(OP(=O)(O)OC[C@H]2O[C@@H](n3ccc(N)nc3=O)[C@H](O)[C@@H]2O)P(=O)(O)O)C[C@H]1OCc1ccccc1 (stereo in doubt; 5Rl) |  | 22.1% |  | 
Nc1ccn([C@@H]2O[C@H](COP(=O)(O)OC([C@H]3C[C@@H](O)[C@@H](O)C3)P(=O)(O)O)[C@@H](O)[C@H]2O)c(=O)n1 (stereo in doubt; 3l) |  | 13% |  | 
CC(=O)N[C@H]1C[C@H](C(OP(=O)(O)OC[C@H]2O[C@@H](n3ccc(N)nc3=O)[C@H](O)[C@@H]2O)P(=O)(O)O)C[C@H]1O (stereo in doubt; 4Sl) |  | 9.99% |  | 
Nc1ccn([C@@H]2O[C@H](COP(=O)(O)OC(C3CCCC3)P(=O)(O)O)[C@@H](O)[C@H]2O)c(=O)n1 (stereo in doubt; 2s) [listing 1 of 2 here] | 5850 |  |  | 
Nc1ccn([C@@H]2O[C@H](COP(=O)(O)OC(C3CCCC3)P(=O)(O)O)[C@@H](O)[C@H]2O)c(=O)n1 (stereo in doubt; 2l) |  | 12.8% |  | 
Nc1ccn([C@@H]2O[C@H](COP(=O)(O)OC(C3CCCC3)P(=O)(O)O)[C@@H](O)[C@H]2O)c(=O)n1 (stereo in doubt; 2s) [listing 2 of 2 here] |  | 43.2% | 7.1 | 
CC(=O)N[C@H]1C[C@H](C(OP(=O)(O)OC[C@H]2O[C@@H](n3ccc(N)nc3=O)[C@H](O)[C@@H]2O)P(=O)(O)O)C[C@H]1O (stereo in doubt; 4Ss) [listing 2 of 2 here] |  | 50.3% | 9.6 | 
CC(=O)N[C@H]1[C@H](Oc2ccccc2)OC(C(OP(=O)(O)OC[C@H]2O[C@@H](n3ccc(N)nc3=O)[C@H](O)[C@@H]2O)P(=O)(O)O)=C[C@@H]1O (stereo partly drawn) |  |  |  | 29

Further lines, results first:

Ki [1] [nM] | inhibition [2] | Ratio [3] | Ki [4] [nM] | Structure (SMILES)
 | 74.1% | 87.3 |  | CC(=O)NC[C@@H]1CCC(OP(=O)(O)OC[C@H]2O[C@@H](n3ccc(N)nc3=O)[C@H](O)[C@@H]2O)(P(=O)(O)O)[C@H]1OCc1ccccc1 (stereo in doubt; 48s) [listing 1 of 2 here]
477 |  |  |  | CC(=O)NC[C@@H]1CCC(OP(=O)(O)OC[C@H]2O[C@@H](n3ccc(N)nc3=O)[C@H](O)[C@@H]2O)(P(=O)(O)O)[C@H]1OCc1ccccc1 (stereo in doubt; 48s) [listing 2 of 2 here]
28 |  |  |  | CC(=O)NC[C@@H]1CCC(OP(=O)(O)OC[C@H]2O[C@@H](n3ccc(N)nc3=O)[C@H](O)[C@@H]2O)(P(=O)(O)O)[C@H]1OCc1ccccc1 (stereo in doubt; 48l) [listing 1 of 2 here]
865 | 46.3% and 70.8% | 48.1 |  | CC(=O)NC[C@@H]1C[C@@H](C(OP(=O)(O)OC[C@H]2O[C@@H](n3ccc(N)nc3=O)[C@H](O)[C@@H]2O)P(=O)(O)O)C[C@H]1OCc1ccccc1 (stereo partly drawn)
 | 65.9% | 27.6 |  | CC(=O)N[C@H]1C[C@@H](C(OP(=O)(O)OC[C@H]2O[C@@H](n3ccc(N)nc3=O)[C@H](O)[C@@H]2O)P(=O)(O)O)C[C@H]1OCc1ccccc1 (stereo in doubt; 5Rs) [listing 2 of 2 here]
 | 97.5% | 1490 |  | CC(=O)NC[C@@H]1CCC(OP(=O)(O)OC[C@H]2O[C@@H](n3ccc(N)nc3=O)[C@H](O)[C@@H]2O)(P(=O)(O)O)[C@H]1OCc1ccccc1 (stereo in doubt; 48l) [listing 2 of 2 here]
 | 63.9% | 25.6 |  | CC(=O)N[C@H]1C[C@H](C(OP(=O)(O)OC[C@H]2O[C@@H](n3ccc(N)nc3=O)[C@H](O)[C@@H]2O)P(=O)(O)O)C[C@H]1OCc1ccccc1 (stereo in doubt; 5Ss) [listing 1 of 2 here]
436 |  |  |  | CC(=O)N[C@H]1C[C@H](C(OP(=O)(O)OC[C@H]2O[C@@H](n3ccc(N)nc3=O)[C@H](O)[C@@H]2O)P(=O)(O)O)C[C@H]1OCc1ccccc1 (stereo in doubt; 5Sl) [listing 2 of 2 here]
1630 |  |  |  | CC(=O)N[C@H]1C[C@H](C(OP(=O)(O)OC[C@H]2O[C@@H](n3ccc(N)nc3=O)[C@H](O)[C@@H]2O)P(=O)(O)O)C[C@H]1OCc1ccccc1 (stereo in doubt; 5Ss) [listing 2 of 2 here]
